Data on nine compounds can be found in patent US10793557B2, “Sting agonist compounds” (Merck Sharp & Dohme Corp., priority 2018, dated 2020).

One test addresses T1, full-length WT STING (Homo sapiens, UniProt Q86WV6, H232R).
T1 construct: AviTag (after gg linker) (C); HRV3C cleavage site (after gs linker) (C); HIS8 (C); made in house; host or cells: Trichoplusia ni (Hi-Five) insect cells infected with baculovirus (virus generated and amplified in Sf21 cells); used as a washed membrane preparation
The experiment in a line: 3H-cGAMP filtration binding assay (WT STING). The note with it: competition with tritiated cGAMP, WT STING membrane. Here is the method:
The ability of compounds to bind STING is quantified by their ability to compete with tritiated cGAMP ligand for human STING receptor membrane using a radioactive filter-binding assay. The binding assay employs STING receptor obtained from Trichoplusia ni cell membranes (T. ni; Expression Systems, cat #94-002F, www.expressionsystems.com) overexpressing full-length WT STING and tritiated cGAMP ligand.
The basic WT STING filtration assay protocol is as follows:
16 nM of [^3H] c-GAMP ligand was prepared by diluting into assay buffer, and 50 uL of this working stock was manually added to each well of the assay plate. After ligand addition, 2 uL of either titrated test compound, DMSO control (Sigma #276855), or cold cGAMP control was added to the appropriate wells using a BIOMEK FX. The serially titrated compound was prepared on a Hamilton STARPlus CORE in a 96-well plate (Greiner, #651201) using a 1:3 ten-point dose response format. Following compound addition, a 2.2 ug/ml working concentration of STING membrane (SEQ. ID. No. 3) was prepared by diluting concentrated membrane into assay buffer (1×PBS; Invitrogen # SH30028.02) and douncing 7× using a manual tissue homogenizer (Wheaton, #357546). 148 uL of this prepared membrane was then manually added to each well of a 96-well deep-well polypropylene plate (Fisher Scientific, #12-566-121). Compound, ligand, and membrane then incubated for 60 min at RT before the contents of each assay plate were filtered through a 96-well GF/B filter plate (PerkinElmer, #6005250) using a TOMTEC MACH III Cell Harvester equipped with 20 mM HEPES buffer (Fisher Scientific, # BP299500). The filter plates were then dried at 55° C. for 30 min using a pressurized VWR oven before 30 uL of ULTIMA GOLD F scintillate was added to each well. Tritium levels for each reaction well were then measured using a PerkinElmer TopCount plate reader.
(§1) After normalization to controls, the percent activity for each compound concentration was calculated by measuring the amount of remaining radioactivity. The plot of percent activity versus the log of compound concentration was fit with a 4-parameter dose response equation to calculate EC50 values.

The subject of test [1] is secretion of interferon-beta from THP1 cells. The experiment in a line: IFN-β secretion in THP1 cell culture (5 h). Format: cell-based. The following applies: Homo sapiens, THP-1, 5 h, compound at 30 μM, 30 uM cGAMP = 100%, read-out: % Effect at 30 μM relative to 2′3′-cGAMP. How it is done:
The ability of compounds to stimulate the secretion of interferon-beta from THP1 cells was measured using a human IFN-β AlphaLISA kit (Perkin Elmer, Cat. No. AL265F). The basic protocol is as follows:
A Labcyte Echo 550 acoustic dispenser was used to transfer 120 nL of compound dissolved in DMSO into the wells of an empty, sterile 384-well microplate, (Corning, Cat. No. 3712). THP1 cells (American Type Culture Collection, Cat. No. TIB202) previously frozen in Recovery Medium (Life Technologies, Cat. No. 12648-010) were thawed and immediately diluted 10-fold into 37° C. assay medium (RPMI 1640+L-Glutamine & phenol red, Life Technologies, Cat. No. 11875-085; 0.5% heat inactivated fetal bovine serum, Sigma Aldrich, Cat. No. F4135; 1 mM Sodium Pyruvate, Life Technologies, Cat. No. 11360-070; 1× non-essential amino acids; Life Technologies, Cat. No. 11140-050). The cell viability and count was ascertained using a Beckman Coulter V-Cell XR cell counter. The cells suspension was centrifuged at 200×g for 5 min at RT. Cells were resuspended to a density of 0.8×10^6/mL in 37° C. assay medium. Subsequent liquid transfers were performed using either a Matrix electronic multichannel pipette or an Agilent Bravo Automated Liquid Handling Platform.
The assay was started by dispensing 40 μL of the previously prepared cell suspension into the wells of the plate containing compounds. After 5 h incubation at 37° C., 5% CO2 in a humidified atmosphere, the plate of cells and compounds was centrifuged at 200×g for 5 min at RT. From each well, 5 μL of supernatant was transferred into corresponding wells of a white 384-well plate (Perkin Elmer, Cat. No. 6005620). To these supernatant-containing wells was added 10 μL of 5× Anti-Analyte Acceptor beads (50 μg/mL of AlphaLISA HiBlock Buffer) and incubated for 30 min at RT while shaking on an orbital plate shaker. To each well was added 10 μL of 5× Biotinylated Antibody Anti-analyte (5 nM in AlphaLISA HiBlock Buffer) and incubated on an orbital plate shaker for 60 min at RT or overnight at 4° C. To each well was added 25 μL of 2× SA-Donor beads (80 μg/mL in AlphaLISA HiBlock Buffer) and incubated for 30-45 min at RT in the dark while shaking on an orbital plate shaker. The plate was then read on a Perkin Elmer Envision (λex=680 nm, […]). The percent effect of the AlphaLISA signal at each compound concentration was calculated based on 30 uM cGAMP positive controls and 0.3% DMSO negative controls. The plot of percent effect versus the log of compound concentration was fit with a 4-parameter concentration response equation to calculate EC50 values. The test compounds were tested at concentrations 30000, 10000, 3333, 1111, 370.4, 123.4, 41.2, 13.7, 4.6, and 1.5 nM with 0.3% residual DMSO. The control compound, cGAMP was tested at concentrations 100000, 33333, 11111, 3704, 1235, 412, 137, 46, and 15 nM with 0.3% residual DMSO.
Compounds of the disclosure were evaluated for IFN-β secretion in THP1 cell culture as described above. The following table tabulates the biological data for these compounds as percent activation relative to 2′3′-cGAMP at the 30 µM concentration.

The next test addresses T2, full-length HAQ STING (Homo sapiens, UniProt Q86WV6, G230A/H232R/R293Q/R71H).
T2 construct: AviTag (after GG linker) (C); HRV3C cleavage site (after GS linker) (C); HIS8 (C); made in house; host or cells: Trichoplusia ni (Hi-Five) insect cells infected with baculovirus (virus generated and amplified in Sf21 cells); used as a washed membrane preparation
The experiment in a line: 3H-cGAMP filtration binding assay (HAQ STING). The following applies: competition with tritiated cGAMP, HAQ STING membrane.
Source text: The ability of compounds to bind STING is quantified by the ability to compete with tritiated cGAMP ligand for human STING receptor membrane using a radioactive filter-binding assay. The binding assay employs STING receptor obtained from Hi-Five cell membranes overexpressing full-length HAQ STING prepared in-house and tritiated cGAMP ligand also purified in-house.
The ability of compounds to bind STING is quantified by their ability to compete with tritiated cGAMP ligand for human STING receptor membrane using a radioactive filter-binding assay. The binding assay employs STING receptor obtained from Trichoplusia ni cell membranes (T. ni; Expression Systems, cat #94-002F, www.expressionsystems.com) overexpressing full-length HAQ STING and tritiated cGAMP ligand.
The basic HAQ STING filtration assay protocol is as follows:
The compounds were serially titrated by the Hamilton STARPlus CORE in a 96-well plate (Greiner, #651201) using a 1:3 ten-point dose response format. After compound preparation, a 2.2 ug/ml working concentration of STING membrane (SEQ. ID. No. 1) was prepared by diluting concentrated membrane into assay buffer (1×PBS; Invitrogen # SH30028.02) and douncing 7× using a manual tissue homogenizer (Wheaton, #357546). 148 uL of prepared membrane was then manually added to each well of a 96-well deep-well polypropylene plate (Fisher Scientific, #12-566-121). Following membrane addition, 2 uL of either titrated test compound, DMSO control (Sigma #276855), or cold cGAMP control was added to the appropriate wells using a BIOMEK FX. Compound and membrane then preincubated for 60 min at RT to allow compound binding to equilibrate. Following equilibration, 8 nM of [^3H]c-GAMP ligand was prepared by diluting into assay buffer, and 50 uL of this working stock was then manually added to each well of the assay plate. Plates were then incubated at RT for 60 min, and the contents of each assay plate were then filtered through a 96-well GF/B filter plate (PerkinElmer, #6005250) using a TOMTEC MACH III Cell Harvester equipped with 20 mM HEPES buffer (Fisher Scientific, # BP299500). The filter plates were then dried at 55° C. for 30 min using a pressurized oven before 30 uL of ULTIMA GOLD F scintillate was added to each well. Tritium levels for each reaction well were then measured using a PerkinElmer TopCount plate reader.
as §1

T2 sequence (Q86WV6 with tags, fused parts or gaps R71H/G230A/H232R/R293Q): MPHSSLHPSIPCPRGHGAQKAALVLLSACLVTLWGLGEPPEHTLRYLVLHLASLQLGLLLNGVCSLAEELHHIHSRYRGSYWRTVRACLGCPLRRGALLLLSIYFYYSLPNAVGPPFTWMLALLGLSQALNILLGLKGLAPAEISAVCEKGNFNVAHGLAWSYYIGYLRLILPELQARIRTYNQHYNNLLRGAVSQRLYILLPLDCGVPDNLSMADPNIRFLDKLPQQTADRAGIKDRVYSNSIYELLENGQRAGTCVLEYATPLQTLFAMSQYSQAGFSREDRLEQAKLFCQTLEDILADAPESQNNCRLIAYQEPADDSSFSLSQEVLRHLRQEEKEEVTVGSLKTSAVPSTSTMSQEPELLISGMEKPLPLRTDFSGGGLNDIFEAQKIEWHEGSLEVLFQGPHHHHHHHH
T1 sequence (Q86WV6 with tags, fused parts or gaps H232R): as the sequence (Q86WV6 with tags, fused parts or gaps R71H/G230A/H232R/R293Q) above, with H71R, A230G, Q293R counted along it

Usually EC50 stands for the concentration giving half of the maximal effect. As for `COc1cc2sc(C(=O)CCC(=O)O)cc2cc1OCCCc1ccc2sc(C(=O)CCC(=O)O)cc2c1` [Example 6, 4-(5-(3-((2-(3-carboxypropanoyl)-6-methoxybenzo [b]thiophen-5-yl)oxy)propyl)benzo[b]thiophen-2-yl)-4-oxobutanoic acid], the EC50 is 206 nM on full-length WT STING and 53 nM at full-length HAQ STING. In addition, the activation at 30 µM in test [1] stood at 106%.
`COc1cc2sc(C(=O)CCC(=O)O)cc2cc1OCCc1nc2cc(C(=O)CCC(=O)O)sc2cc1OC` [Example 7, 4-(5-(2-((2-(3-carboxypropanoyl)-6-methoxybenzo [b]thiophen-5-yl)oxy)ethyl)-6-methoxythieno[3,2-b]pyridin-2-yl)-4-oxobutanoic acid]: the EC50 came out at 71 nM on full-length WT STING and 17 nM at full-length HAQ STING. Moreover, the activation at 30 µM in test [1] was determined as 97%.
For `COc1cc2sc(C(=O)CCC(=O)O)cc2nc1CCOc1nc2cc(C(=O)CCC(=O)O)sc2cc1OC` [Example 8, 4-(5-(2-(2-(3-carboxypropanoyl)-6-methoxythieno[3,2-b]pyridin-5-yl)ethoxy)-6-methoxythieno[3,2-b]pyridin-2-yl)-4-oxobutanoic acid], in that order: 76 nM, 12 nM and 99%.
For `COc1cc2sc(C(=O)CCC(=O)O)nc2cc1OCCc1nc2cc(C(=O)CCC(=O)O)sc2cc1OC` [Example 9, 4-(5-(2-((2-(3-carboxypropanoyl)-6-methoxybenzo[d]thiazol-5-yl)oxy)ethyl)-6-methoxythieno[3,2-b]pyridin-2-yl)-4-oxobutanoic acid], in that order: 322 nM, 116 nM and 48%.
As to `COc1cc2sc(C(=O)CCC(=O)O)cc2cc1CCCOc1nc2cc(C(=O)CCC(=O)O)sc2cc1OC` [Example 10, 4-(5-(3-(2-(3-carboxypropanoyl)-6-methoxybenzo [b]thiophen-5-yl)propoxy)-6-methoxythieno[3,2-b]pyridin-2-yl)-4-oxobutanoic acid], the EC50 is 421 nM on full-length WT STING and 123 nM on full-length HAQ STING. In test [1], the activation at 30 µM was found to be 134%.
The corresponding values for `COc1cc2sc(C(=O)CCC(=O)O)cc2cc1OCCOc1ccc2sc(C(=O)CCC(=O)O)cc2c1` [Example 11, 4-(5-(2-((2-(3-carboxypropanoyl)-6-methoxybenzo [b]thiophen-5-yl)oxy)ethoxy)benzo[b]thiophen-2-yl)-4-oxobutanoic acid] are 4560 nM, 1760 nM and 7%.
`COc1cc2sc(C(=O)CCC(=O)O)cc2cc1OCCCc1nc2cc(C(=O)CCC(=O)O)sc2cc1OC` [Example 13, 4-(5-(3-((2-(3-carboxypropanoyl)-6-methoxybenzo[b]thiophen-5-yl)oxy)propyl)-6-methoxythieno[3,2-b]pyridin-2-yl)-4-oxobutanoic acid]: the EC50 at full-length WT STING turned out to be 625 nM; on full-length HAQ STING, 158 nM. Besides, the activation at 30 µM in test [1] came out at 67%.
With `COc1cc2sc(C(=O)C[C@H](C)C(=O)O)cc2cc1CCCOc1nc2cc(C(=O)CCC(=O)O)sc2cc1OC` [Example 14, (S)-4-(5-(3-((2-(3-carboxypropanoyl)-6-methoxythieno[3,2-b]pyridin-5-yl)oxy)propyl)-6-methoxybenzo[b]thiophen-2-yl)-2-methyl-4-oxobutanoic acid], the EC50 on full-length WT STING was 21 nM; at full-length HAQ STING it was 3 nM. The activation at 30 µM in test [1] amounted to 77%.
Consider `COc1cc2sc(C(=O)C[C@H](C)C(=O)O)cc2cc1OCCCc1nc2cc(C(=O)CCC(=O)O)sc2cc1OC` [Example 15, (S)-4-(5-(3-(2-(3-carboxypropanoyl)-6-methoxythieno [3,2-b]pyridin-5-yl)propoxy)-6-methoxybenzo[b]thiophen-2-yl)-2-methyl-4-oxobutanoic acid], for which the EC50 turned out to be 615 nM on full-length WT STING and 107 nM on full-length HAQ STING. For the same compound, in test [1], the activation at 30 µM stood at 114%.
